Reference: the NIST ThermoML archive (doi:10.1021/je200038n)

Assay: wn = mass fraction of the nth substance listed
Settings: 3000 kPa, Liquid; for mass density: Vibrating tube method; for viscosity: Moving piston method

N#C[S-].[Na+] [sodium thiocyanate] + N
Settings | mass density [kg/m3] | viscosity [mPa·s]
269.4 K, w2 = 0.8921 | 707.7 | –
269.8 K, w2 = 0.8921 | – | 0.27
270.4 K, w2 = 0.614 | 896.5 | –
270.4 K, w2 = 0.6824 | 850 | –
270.5 K, w2 = 0.4998 | 965.7 | –
270.5 K, w2 = 0.797 | 772.7 | –
270.6 K, w2 = 0.614 | – | 1.41
270.6 K, w2 = 0.6824 | – | 0.82
270.8 K, w2 = 0.4998 | – | 3.47
270.8 K, w2 = 0.797 | – | 0.44
274.8 K, w2 = 0.614 | 892.6 | –
274.8 K, w2 = 0.797 | 767.4 | –
274.9 K, w2 = 0.614 | – | 1.27
274.9 K, w2 = 0.6824 | 848 | 0.77
275 K, w2 = 0.4998 | 962.2 | 3.08
275 K, w2 = 0.797 | – | 0.4
275.2 K, w2 = 0.8921 | 699.9 | –
275.4 K, w2 = 0.8921 | – | 0.25
279.3 K, w2 = 0.6824 | 844 | –
279.4 K, w2 = 0.614 | 888.8 | 1.14
279.4 K, w2 = 0.6824 | – | 0.7
279.4 K, w2 = 0.797 | 761.7 | 0.37
279.5 K, w2 = 0.4998 | 959.3 | 2.75
283.8 K, w2 = 0.6824 | 839 | –
283.9 K, w2 = 0.797 | 756.4 | –
284 K, w2 = 0.614 | 884.9 | 1.06
284 K, w2 = 0.6824 | – | 0.65
284.1 K, w2 = 0.4998 | 955.9 | 2.43
284.1 K, w2 = 0.797 | – | 0.35
284.2 K, w2 = 0.8921 | 686.6 | –
284.3 K, w2 = 0.8921 | – | 0.22
288.6 K, w2 = 0.614 | 881.6 | –
288.6 K, w2 = 0.6824 | 834 | –
288.6 K, w2 = 0.797 | 750.7 | –
288.7 K, w2 = 0.4998 | 952.2 | 2.2
288.7 K, w2 = 0.6824 | – | 0.61
288.7 K, w2 = 0.797 | – | 0.33
293.3 K, w2 = 0.614 | 878.3 | –
293.3 K, w2 = 0.6824 | 831 | 0.57
293.4 K, w2 = 0.4998 | 948.2 | 1.95
293.4 K, w2 = 0.614 | – | 0.89
293.4 K, w2 = 0.797 | 745.1 | 0.31
293.5 K, w2 = 0.8921 | 674 | 0.2
298 K, w2 = 0.614 | – | 0.83
298 K, w2 = 0.6824 | 828 | 0.52
298.1 K, w2 = 0.4998 | – | 1.73
298.1 K, w2 = 0.614 | 875.8 | –
298.2 K, w2 = 0.4998 | 944.6 | –
302.7 K, w2 = 0.797 | – | 0.28
302.8 K, w2 = 0.614 | 870 | 0.76
302.8 K, w2 = 0.6824 | – | 0.49
302.8 K, w2 = 0.8921 | – | 0.18
302.9 K, w2 = 0.4998 | – | 1.57
302.9 K, w2 = 0.6824 | 821 | –
302.9 K, w2 = 0.797 | 734.7 | –
303 K, w2 = 0.4998 | 941 | –
303 K, w2 = 0.8921 | 660.5 | –
307.5 K, w2 = 0.614 | – | 0.71
307.5 K, w2 = 0.6824 | – | 0.46
307.5 K, w2 = 0.797 | – | 0.26
307.6 K, w2 = 0.4998 | – | 1.41
307.6 K, w2 = 0.614 | 866.2 | –
307.6 K, w2 = 0.6824 | 817 | –
307.6 K, w2 = 0.797 | 729.5 | –
307.7 K, w2 = 0.4998 | 937.1 | –
312.2 K, w2 = 0.6824 | – | 0.43
312.2 K, w2 = 0.797 | – | 0.24
312.2 K, w2 = 0.8921 | – | 0.16
312.3 K, w2 = 0.4998 | – | 1.27
312.3 K, w2 = 0.614 | – | 0.66
312.3 K, w2 = 0.6824 | 811 | –
312.4 K, w2 = 0.4998 | 933.3 | –
312.4 K, w2 = 0.614 | 862.3 | –
